Data: ChEMBL document CHEMBL5247607, “Design, synthesis and biological evaluation of a new series of arylidene indanones as small molecules for targeted therapy of non-small cell lung carcinoma and prostate cancer” (Eur J Med Chem, 2022)
Active and inactive are the calls of the source. The rule behind the calls is not given here.

How the values were obtained:
PANC-1 [1] = assay: Induction of mitochondrial membrane potential loss in human PANC-1 cells assessed as depolarized cells at IC50 incubated for 24 hrs by JC-1 staining based flow cytometry assay (reference value: 5%); type: functional
PANC-1 [2] = assay: Induction of morphological changes in human PANC-1 cells assessed as formation of apoptotic bodies at 10.04 uM incubated for 24 hrs by acridine orange/ethidium bromide staining based fluorescence microscopic analysis; type: functional, cell-based
PANC-1 [3] = assay: Induction of apoptosis in human PANC-1 cells assessed as total cell viability at IC50 incubated for 24 hrs by annexin V-FITC/PI staining based flow cytometry analysis (reference value: 84.4%); type: functional
A549 [4] = assay: Induction of morphological changes in human A549 cells assessed as formation of apoptotic bodies at 15.33 uM incubated for 24 hrs by acridine orange/ethidium bromide staining based fluorescence microscopic analysis; type: functional, cell-based
PANC-1 [5] = assay: Induction of apoptosis in human PANC-1 cells assessed as activation of caspase-3 by measuring caspase-3 positive cells at IC50 incubated for 24 hrs by flow cytometry analysis (reference value: 1.8%); type: functional
A549 [6] = assay: Induction of mitochondrial membrane potential loss in human A549 cells assessed as depolarized cells at IC50 incubated for 24 hrs by JC-1 staining based flow cytometry assay (reference value: 6.9%); type: functional
PANC-1 [7] = assay: Inhibition of DNA synthesis in human PANC-1 cells at 10.04 uM incubated for 24 hrs by BrdU incorporation assay relative to control; type: functional
A549 [8] = assay: Induction of apoptosis in human A549 cells assessed as total cell viability at IC50 incubated for 24 hrs by annexin V-FITC/PI staining based flow cytometry analysis (reference value: 85.6 %); type: functional
[9] = biological target: Cathepsin D (Homo sapiens) (UniProt P07339); assay: Inhibition of cathepsin D (unknown origin) at 100 uM
Cathepsin D (Homo sapiens), sequence (P07339 65-162 limits assumed): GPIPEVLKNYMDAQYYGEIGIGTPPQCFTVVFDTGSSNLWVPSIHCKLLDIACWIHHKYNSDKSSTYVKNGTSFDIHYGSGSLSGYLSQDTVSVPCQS
Cathepsin D (Homo sapiens), sequence (P07339 169-412 limits assumed): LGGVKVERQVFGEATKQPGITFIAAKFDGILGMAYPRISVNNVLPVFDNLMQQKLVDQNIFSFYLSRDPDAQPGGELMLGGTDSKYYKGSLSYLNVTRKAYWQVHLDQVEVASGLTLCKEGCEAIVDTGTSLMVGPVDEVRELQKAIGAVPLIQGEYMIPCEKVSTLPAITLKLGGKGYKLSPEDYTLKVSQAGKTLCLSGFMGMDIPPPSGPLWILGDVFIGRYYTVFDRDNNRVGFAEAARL

PANC-1 [10] = assay: Induction of apoptosis in human PANC-1 cells assessed as late apoptotic cells at IC50 incubated for 24 hrs by annexin V-FITC/PI staining based flow cytometry analysis (reference value: 0.2%); type: functional
[11] = Selectivity index, ratio of IC50 for cytotoxicity against human hTERT-HPNE cells to IC50 for cytotoxicity against human PANC-1 cells; type: toxicity, cell-based; conditions: hTERT-HPNE cells versus PANC-1 cells, read-out: Ratio IC50
A549 [12] = assay: Induction of apoptosis in human A549 cells assessed as activation of caspase-3 by measuring caspase-3 negative cells at IC50 incubated for 24 hrs by flow cytometry analysis (reference value: 91.1%); type: functional
A549 [13] = assay: Induction of morphological changes in human A549 cells assessed as chromatin condensation at 15.33 uM incubated for 24 hrs by acridine orange/ethidium bromide staining based fluorescence microscopic analysis; type: functional, cell-based
PANC-1 [14] = assay: Induction of morphological changes in human PANC-1 cells assessed as chromatin condensation at 10.04 uM incubated for 24 hrs by acridine orange/ethidium bromide staining based fluorescence microscopic analysis; type: functional, cell-based
A549 [15] = assay: Induction of apoptosis in human A549 cells assessed as early apoptotic cells at IC50 incubated for 24 hrs by annexin V-FITC/PI staining based flow cytometry analysis (reference value: 5.6%); type: functional
A549 [16] = assay: Inhibition of DNA synthesis in human A549 cells at IC50 incubated for 24 hrs by BrdU incorporation assay relative to control; type: functional
PANC-1 [17] = assay: Induction of apoptosis in human PANC-1 cells assessed as early apoptotic cells at IC50 incubated for 24 hrs by annexin V-FITC/PI staining based flow cytometry analysis (reference value: 0%); type: functional
A549 [18] = assay: Induction of mitochondrial membrane potential loss in human A549 cells assessed as polarized cells at IC50 incubated for 24 hrs by JC-1 staining based flow cytometry assay (reference value: 90.6%); type: functional
[19] = Cytotoxicity against human CCD 19Lu cells assessed as inhibition of cell growth incubated for 24 hrs by MTT assay; type: toxicity, cell-based
[20] = Cytotoxicity against human hTERT-HPNE cells assessed as inhibition of cell growth incubated for 24 hrs by MTT assay; type: toxicity, cell-based
[21] = Selectivity index, ratio of IC50 for cytotoxicity against human CCD 19Lu cells to IC50 for cytotoxicity against human A549 cells; type: toxicity, cell-based; conditions: CCD 19Lu cells versus A549 cells, read-out: Ratio IC50
A549 [22] = assay: Inhibition of DNA synthesis in human A549 cells at IC50/2 incubated for 24 hrs by BrdU incorporation assay relative to control; type: functional
PANC-1 [23] = assay: Cytotoxicity against human PANC-1 cells assessed as inhibition of cell growth incubated for 24 hrs by MTT assay; type: functional, cell-based; conditions: PANC-1, 24 h
A549 [24] = assay: Induction of apoptosis in human A549 cells assessed as activation of caspase-3 by measuring caspase-3 positive cells at IC50 incubated for 24 hrs by flow cytometry analysis (reference value: 8.4%); type: functional
A549 [25] = assay: Inhibition of DNA synthesis in human A549 cells at IC50/4 incubated for 24 hrs by BrdU incorporation assay relative to control; type: functional
A549 [26] = assay: Induction of morphological changes in human A549 cells assessed as cell shrinkage at 15.33 uM incubated for 24 hrs by acridine orange/ethidium bromide staining based fluorescence microscopic analysis; type: functional
A549 [27] = assay: Cytotoxicity against human A549 cells assessed as inhibition of cell growth incubated for 24 hrs by MTT assay; type: functional, cell-based; conditions: A549, 24 h
PANC-1 [28] = assay: Induction of apoptosis in human PANC-1 cells assessed as activation of caspase-3 by measuring caspase-3 negative cells at IC50 incubated for 24 hrs by flow cytometry analysis (reference value: 98.5 %); type: functional
PANC-1 [29] = assay: Induction of morphological changes in human PANC-1 cells assessed as cell shrinkage at 10.04 uM incubated for 24 hrs by acridine orange/ethidium bromide staining based fluorescence microscopic analysis; type: functional
A549 [30] = assay: Induction of apoptosis in human A549 cells assessed as late apoptotic cells at IC50 incubated for 24 hrs by annexin V-FITC/PI staining based flow cytometry analysis (reference value: 6.5 %); type: functional
PANC-1 [31] = assay: Induction of mitochondrial membrane potential loss in human PANC-1 cells assessed as polarized cells at IC50 incubated for 24 hrs by JC-1 staining based flow cytometry assay (reference value: 92%); type: functional
[32] = biological target: Procathepsin L (Homo sapiens) (UniProt P07711); assay: Inhibition of cathepsin L (unknown origin) at 100 uM
Procathepsin L (Homo sapiens), sequence (P07711 114-333 limits assumed): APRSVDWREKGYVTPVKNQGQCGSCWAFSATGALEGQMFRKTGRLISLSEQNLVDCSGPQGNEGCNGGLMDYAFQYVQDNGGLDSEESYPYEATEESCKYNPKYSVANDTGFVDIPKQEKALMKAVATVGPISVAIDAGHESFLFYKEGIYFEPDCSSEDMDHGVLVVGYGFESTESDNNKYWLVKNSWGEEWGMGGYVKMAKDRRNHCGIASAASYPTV

A549 [33] = assay: Induction of apoptosis in human A549 cells assessed as increase in intracellular calcium level at 5.99 uM by Fluo-4-AM staining based flow cytometry analysis; type: functional, cell-based
A549 [34] = assay: Induction of morphological changes in human A549 cells assessed as cell shrinkage at 5.99 uM incubated for 24 hrs by acridine orange/ethidium bromide staining based fluorescence microscopic analysis; type: functional
PANC-1 [35] = assay: Induction of morphological changes in human PANC-1 cells assessed as formation of apoptotic bodies at 5.99 uM incubated for 24 hrs by acridine orange/ethidium bromide staining based fluorescence microscopic analysis; type: functional, cell-based
A549 [36] = assay: Induction of apoptosis in human A549 cells assessed as total apoptotic cells at IC50 incubated for 24 hrs by annexin V-FITC/PI staining based flow cytometry analysis relative to control; type: functional
[37] = biological target: Cathepsin D (Homo sapiens) (UniProt P07339); assay: Inhibition of cathepsin D (unknown origin) at 100 uM relative to control
A549 [38] = assay: Induction of morphological changes in human A549 cells assessed as formation of apoptotic bodies at 5.99 uM incubated for 24 hrs by acridine orange/ethidium bromide staining based fluorescence microscopic analysis; type: functional, cell-based
A549 [39] = assay: Induction of morphological changes in human A549 cells assessed as chromatin condensation at 5.99 uM incubated for 24 hrs by acridine orange/ethidium bromide staining based fluorescence microscopic analysis; type: functional, cell-based
PANC-1 [40] = assay: Inhibition of DNA synthesis in human PANC-1 cells at 5.99 uM incubated for 24 hrs by BrdU incorporation assay relative to control; type: functional
A549 [41] = assay: Inhibition of DNA synthesis in human A549 cells at 5.99 uM incubated for 24 hrs by BrdU incorporation assay relative to control; type: functional
PANC-1 [42] = assay: Induction of morphological changes in human PANC-1 cells assessed as cell shrinkage at 5.99 uM incubated for 24 hrs by acridine orange/ethidium bromide staining based fluorescence microscopic analysis; type: functional
PANC-1 [43] = assay: Induction of morphological changes in human PANC-1 cells assessed as chromatin condensation at 5.99 uM incubated for 24 hrs by acridine orange/ethidium bromide staining based fluorescence microscopic analysis; type: functional, cell-based
PANC-1 [44] = assay: Inhibition of DNA synthesis in human PANC-1 cells at 6.51 uM incubated for 24 hrs by BrdU incorporation assay relative to control; type: functional
PANC-1 [45] = assay: Induction of apoptosis in human PANC-1 cells assessed as total apoptotic cells at IC50 incubated for 24 hrs by annexin V-FITC/PI staining based flow cytometry analysis relative to control; type: functional
PANC-1 [46] = assay: Induction of morphological changes in human PANC-1 cells assessed as cell shrinkage at 6.51 uM incubated for 24 hrs by acridine orange/ethidium bromide staining based fluorescence microscopic analysis; type: functional
PANC-1 [47] = assay: Induction of morphological changes in human PANC-1 cells assessed as formation of apoptotic bodies at 6.51 uM incubated for 24 hrs by acridine orange/ethidium bromide staining based fluorescence microscopic analysis; type: functional, cell-based
PANC-1 [48] = assay: Induction of morphological changes in human PANC-1 cells assessed as chromatin condensation at 6.51 uM incubated for 24 hrs by acridine orange/ethidium bromide staining based fluorescence microscopic analysis; type: functional, cell-based

O=C1/C(=C/c2ccc(OCCN3CCOCC3)cc2)Cc2cc3c(cc21)OCO3
Activity (PANC-1 [1]): 61.2%
Activity (PANC-1 [2]): Active
Activity (PANC-1 [3]): 9.5%
Activity (A549 [4]): Active
Activity (PANC-1 [5]): 7.3%
Activity (A549 [6]): 35%
inhibition at 10.04 µM (PANC-1 [7]): 18.4%
Activity (A549 [8]): 82.4%
inhibition [9]: inactive
Activity (PANC-1 [10]): 0.5%
selectivity ratio [11]: > 127
Activity (A549 [12]): 93.2%
Activity (A549 [13]): Active
Activity (PANC-1 [14]): Active
Activity (A549 [15]): 10.4%
inhibition (INH) (A549 [16]): 19.99%
Activity (PANC-1 [17]): 0.1%
Activity (A549 [18]): 62.8%
IC50 at 24 h [19]: 160 µM
IC50 at 24 h [20]: > 1270 µM
selectivity ratio [21]: 10.4
inhibition (INH) (A549 [22]): 9.78%
IC50 (PANC-1 [23]): 10 µM
Activity (A549 [24]): 6.9%
inhibition (INH) (A549 [25]): 4.83%
Activity (A549 [26]): Active
IC50 (A549 [27]): 15.3 µM
Activity (PANC-1 [28]): 93.6%
Activity (PANC-1 [29]): Active
Activity (A549 [30]): 5.6%
Activity (PANC-1 [31]): 37.8%
inhibition [32]: inactive

O=C1/C(=C/c2ccc(N3CCCC3)cc2)Cc2cc3c(cc21)OCO3
Activity (A549 [33]): Active
Activity (PANC-1 [1]): 16.7%
Activity (A549 [34]): Active
Activity (PANC-1 [3]): 76.3%
Activity (PANC-1 [5]): 11.3%
Activity (PANC-1 [35]): Active
Activity (A549 [36]): 85.4%
Activity (A549 [6]): 65%
Activity (A549 [8]): 12.5%
Activity (PANC-1 [10]): 3.4%
inhibition [37]: 52.7%
selectivity ratio [11]: > 128
Activity (A549 [12]): 92.5%
Activity (A549 [38]): Active
Activity (A549 [15]): 65.4%
Activity (PANC-1 [17]): 0.6%
Activity (A549 [18]): 76.4%
IC50 at 24 h [19]: 61.5 µM
Activity (A549 [39]): Active
IC50 at 24 h [20]: > 1500 µM
inhibition at 5.99 µM (PANC-1 [40]): 31%
selectivity ratio [21]: > 5.25
IC50 (PANC-1 [23]): < 11.7 µM
Activity (A549 [24]): 7.4%
inhibition at 5.99 µM (A549 [41]): 4.41%
Activity (PANC-1 [42]): Active
IC50 (A549 [27]): < 11.7 µM
Activity (PANC-1 [28]): 89.6%
Activity (A549 [30]): 20%
Activity (PANC-1 [31]): 82%
Activity (PANC-1 [43]): Active

CN(C)c1ccc(/C=C2\Cc3cc4c(cc3C2=O)OCO4)cc1
inhibition at 6.51 µM (PANC-1 [44]): 16.9%
Activity (PANC-1 [1]): 11%
Activity (PANC-1 [3]): 50.4%
Activity (PANC-1 [5]): 4.7%
Activity (PANC-1 [10]): 15.9%
inhibition [37]: 27.5%
selectivity ratio [11]: > 128
Activity (PANC-1 [45]): 40.6%
Activity (PANC-1 [46]): Active
Activity (PANC-1 [17]): 24.7%
IC50 at 24 h [19]: > 1630 µM
IC50 at 24 h [20]: > 1630 µM
selectivity ratio [21]: > 24.6
IC50 (PANC-1 [23]): < 12.7 µM
Activity (PANC-1 [47]): Active
IC50 (A549 [27]): 66.2 µM
Activity (PANC-1 [28]): 96.5%
Activity (PANC-1 [31]): 83.9%
inhibition [32]: inactive
Activity (PANC-1 [48]): Active
